Assays:
[1] = wn = mass fraction of the nth substance listed; settings: 101 kPa, Liquid; for viscosity: Capillary tube (Ostwald / Ubbelohde) method; for thermal conductivity: Hot wire method; for mass density: Pycnometric method
[2] = Liquid; for viscosity / mass density: 101 kPa; for viscosity: Capillary tube (Ostwald / Ubbelohde) method; for mass density: Pycnometric method; for thermal conductivity: 101.33 kPa, Hot wire method

CCOC(F)(F)C(F)(F)C(F)(F)C(F)(F)F [1-ethoxy-1,1,2,2,3,3,4,4,4-nonafluorobutane] + CCCCOCC
[1], 298.2 K
Settings | mass density [kg/m3] | thermal conductivity [W/m/K] | viscosity [mPa·s]
w2 = 0 | 1417 | 0.0662 | 0.6065
w2 = 0.1 | 1293.4 | 0.0664 | 0.5458
w2 = 0.2 | 1187.4 | 0.0707 | 0.5042
w2 = 0.4 | 1024.9 | 0.0774 | 0.4379
w2 = 0.6 | 907.4 | 0.0921 | 0.4077
w2 = 0.8 | 813.7 | 0.1085 | 0.397

CO [methanol]
[2], 297.8 K
Settings | mass density [kg/m3] | viscosity [mPa·s]
– | 791.8 | 0.5463

CCOC(F)(F)C(F)(F)C(F)(F)C(F)(F)F [1-ethoxy-1,1,2,2,3,3,4,4,4-nonafluorobutane]
[2]
Settings | mass density [kg/m3] | thermal conductivity [W/m/K] | viscosity [mPa·s]
278.8 K | – | 0.0712 | –
297.8 K | 1417 | – | 0.6065
298.2 K | 1417 | 0.0662 | 0.6065
300.6 K | – | 0.0644 | –
314.1 K | – | 0.0616 | –
328.3 K | – | 0.059 | –
344.1 K | – | 0.0563 | –

CCCCOCC [butyl ethyl ether]
[2]
Settings | mass density [kg/m3] | thermal conductivity [W/m/K] | viscosity [mPa·s]
298.15 K | – | 0.1258 | –
298.2 K | 743 | – | 0.3868
299.62 K | – | 0.125 | –
312.17 K | – | 0.1229 | –
333.39 K | – | 0.1017 | –
354.63 K | – | 0.0949 | –

CCCCOCC [butyl ethyl ether] + CCOC(F)(F)C(F)(F)C(F)(F)C(F)(F)F
[1], 298.2 K, w1 = 1
Settings | mass density [kg/m3] | thermal conductivity [W/m/K] | viscosity [mPa·s]
– | 743 | 0.1258 | 0.3868

CO [methanol] + CCOC(F)(F)C(F)(F)C(F)(F)C(F)(F)F
[1], 297.8 K, w1 = 1
Settings | mass density [kg/m3] | viscosity [mPa·s]
– | 791.8 | 0.5463

CCOC(F)(F)C(F)(F)C(F)(F)C(F)(F)F [1-ethoxy-1,1,2,2,3,3,4,4,4-nonafluorobutane] + CO
[1], 297.8 K
Settings | mass density [kg/m3] | thermal conductivity [W/m/K] | viscosity [mPa·s]
w2 = 0 | 1417 | – | 0.6065
w2 = 0.1 | 1357 | 0.0729 | 0.6034
w2 = 0.2 | 1294.4 | 0.0794 | 0.6802
w2 = 0.4 | 1058.4 | 0.0948 | 0.6089
w2 = 0.6 | 946.5 | 0.1108 | 0.571
w2 = 0.8 | 852.6 | 0.1326 | 0.5495
